Reference: patent US6518262B1, “22R-hydroxycholesta-8, 14-diene derivatives for the inhibition of meiosis” (Akzo Nobel N.V., priority 1999, dated 2003)

What was measured:
[1] = test system: denuded oocytes (DO); assay: Oocyte assay, agonistic testing, denuded oocytes (DO assay); type: cell-based, mice (B6D2-F1, strain C57BL×DBA); settings: hypoxanthine medium, 22 hours culture, control value in brackets
Source text: (§1) Oocytes arrested in meiosis contain diffused chromosomes which are surrounded by an intact nuclear envelope known as the germinal vesicle (GV). Upon reinitiation of meiosis by the midcycle gonadotropin surge, the chromosomes recondense and the GV breaks down (GVBD). In vivo, the oocyte is exposed to hypoxanthine (HX), which maintains the oocyte arrested in the meiotic prophase. This meiotic arrest can be mimicked in vitro by addition of hypoxanthine to the culture medium. The agonistic activity of meiosis activating substances is measured as the ability to overcome the hypoxanthine maintained meiotic arrest in denuded oocytes (DO) or cumulus enclosed oocytes (CEO), i.e. as the ability to induce meiotic resumption in vitro.
(§2) Ovaries are obtained from immature female mice (B6D2-F1, strain C57BL×DBA). At the age of 19, 20 or 21 days the mice are injected subcutaneously with a single dose of 20 IU follicle stimulating hormone (Humegon, Organon, The Netherlands) in saline.
Forty-eight hours after follicle stimulating hormone injection mice are killed by cervical dislocation. The ovaries are removed, freed of extraneous tissue and placed in a multidish containing 0.5 ml preparation medium at 37° C. L-15 Leibovitz medium (Gibco, pH 7.3±0.1) supplemented with bovine serum albumin (3 mg·ml^−1), L-glutamine (0.23 mM), sodium pyruvate (2 mM) and hypoxanthine (4 mM) is used as preparation medium. The antral follicles of the ovaries are punctured under a dissecting microscope using two 27-gauge needles attached to two 1 ml syringes. Cumulus enclosed oocytes (CEO) of uniform size are selected with a mouth-controlled pipette and rinsed in 0.5 ml fresh preparation medium. About 20 CEO are obtained from one ovary.
Oocytes freed from cumulus cells, i.e. denuded oocytes (DO), are obtained by gently flushing CEO through a fine-bore mouth-controlled pipette. DO were collected in fresh MEM alpha medium, containing bovine serum albumin (3 mg·ml^−1), L-glutamine (0.23 mM), sodium pyruvate (2 mM) and hypoxanthine (4 mM), and washed twice before transfer to the test medium.
(§3) The oocyte assay is performed in 3 blocks, each block represents the ovaries of one mouse (randomized block design). […] At t=0 the number of oocytes with intact germinal vesicles (GV) or germinal vesicle break-down (GVBD) is counted under an inverted microscope with differential interference contrast equipment. […] At the end of the culture period the number of oocytes with GV or GVBD per group is counted. For statistical analysis the percentage germinal vesicle breakdown is calculated for each group in one block. These percentages are subjected to arcsin transformation, and differences between control and test compounds are analyzed by an ANOVA test for a randomized block design. […]

[2] = test system: cumulus enclosed oocytes (CEO); assay: Oocyte assay, agonistic testing, cumulus enclosed oocytes (CEO assay); type: cell-based, mice (B6D2-F1, strain C57BL×DBA); settings: hypoxanthine medium, 22 hours culture, control value in brackets
Source text: as §1, §2
Forty-eight hours after follicle stimulating hormone injection mice are killed by cervical dislocation. The ovaries are removed, freed of extraneous tissue and placed in a multidish containing 0.5 ml preparation medium at 37° C. L-15 Leibovitz medium (Gibco, pH 7.3±0.1) supplemented with bovine serum albumin (3 mg·ml^−1), L-glutamine (0.23 mM), sodium pyruvate (2 mM) and hypoxanthine (4 mM) is used as preparation medium. […]
as §3

[3] = test system: cultured cumulus enclosed and naked mouse oocytes; settings: cited from earlier work

Compound | % GVBD DO assay exp. ([1]; compound 5 μM) | % GVBD CEO assay exp. ([2]; compound 5 μM) | activation of the resumption of meiosis [3] | % GVBD DO assay exp. ([1]; compound 10 μM) | % GVBD CEO assay exp. ([2]; compound 10 μM)
CC(C)=CC[C@H](O)[C@@H](C)[C@H]1CC=C2C3=C(CC[C@@]21C)[C@@]1(C)CC[C@H](O)C(C)(C)[C@@H]1CC3 [22S-hydroxy-FF-Mas, (3β,5α,20S,22S)-4,4-dimethylcholesta-8,14,24-triene-3,22-diol] | 97(2) % | 73(2) % |  |  | 
CC(C)=CCC[C@@H](C)[C@H]1CC[C@H]2C3=C(CC[C@]12C)[C@@]1(C)CC[C@H](O)C(C)(C)[C@@H]1CC3 [(3β,5α,20R)-4,4-dimethylcholesta-8,24-dien-3-ol] |  |  | able to activate the resumption of meiosis |  | 
CC(C)=CCC[C@@H](C)[C@H]1CC=C2C3=C(CC[C@@]21C)[C@@]1(C)CC[C@H](O)C(C)(C)[C@@H]1CC3 [FF-Mas, (3β,5α,20R)-4,4-dimethylcholesta-8,14,24-trien-3-ol] |  |  | able to activate the resumption of meiosis | 84(7) % | 0(0) %
